Data on eleven molecules can be found in patent US20150274719A1, “AMINO-SUBSTITUTED IMIDAZO[1,2-A]PYRIDINECARBOXAMIDES AND THEIR USE” (BAYER PHARMA AKTIENGESELLSCHAFT, priority 2012, published 2015).

Series [1] concerns the target T1, recombinant guanylate cyclase reporter cell line (Rattus norvegicus, UniProt P19686+P20595).
T1 construct: expressed in transfected cells; host or cells: recombinant reporter cell line
T1 sequence (P19686 1-690): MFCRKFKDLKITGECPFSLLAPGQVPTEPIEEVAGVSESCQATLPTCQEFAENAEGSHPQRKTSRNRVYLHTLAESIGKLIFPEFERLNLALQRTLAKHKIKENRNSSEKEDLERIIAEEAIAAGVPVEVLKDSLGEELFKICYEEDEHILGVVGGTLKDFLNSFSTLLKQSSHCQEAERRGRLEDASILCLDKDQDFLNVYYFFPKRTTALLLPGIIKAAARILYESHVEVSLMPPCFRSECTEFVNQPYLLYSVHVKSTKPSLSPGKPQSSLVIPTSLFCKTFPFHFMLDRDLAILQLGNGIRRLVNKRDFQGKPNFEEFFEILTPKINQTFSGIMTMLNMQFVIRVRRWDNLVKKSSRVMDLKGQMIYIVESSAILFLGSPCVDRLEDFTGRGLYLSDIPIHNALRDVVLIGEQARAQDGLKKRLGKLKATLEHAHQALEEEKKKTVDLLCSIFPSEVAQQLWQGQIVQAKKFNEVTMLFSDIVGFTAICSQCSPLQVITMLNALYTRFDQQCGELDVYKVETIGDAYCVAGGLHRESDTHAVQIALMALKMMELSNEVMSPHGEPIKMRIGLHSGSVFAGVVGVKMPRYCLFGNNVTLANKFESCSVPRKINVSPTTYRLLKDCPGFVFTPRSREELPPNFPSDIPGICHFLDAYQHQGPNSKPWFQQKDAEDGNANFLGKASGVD
T1 sequence (P20595 1-619): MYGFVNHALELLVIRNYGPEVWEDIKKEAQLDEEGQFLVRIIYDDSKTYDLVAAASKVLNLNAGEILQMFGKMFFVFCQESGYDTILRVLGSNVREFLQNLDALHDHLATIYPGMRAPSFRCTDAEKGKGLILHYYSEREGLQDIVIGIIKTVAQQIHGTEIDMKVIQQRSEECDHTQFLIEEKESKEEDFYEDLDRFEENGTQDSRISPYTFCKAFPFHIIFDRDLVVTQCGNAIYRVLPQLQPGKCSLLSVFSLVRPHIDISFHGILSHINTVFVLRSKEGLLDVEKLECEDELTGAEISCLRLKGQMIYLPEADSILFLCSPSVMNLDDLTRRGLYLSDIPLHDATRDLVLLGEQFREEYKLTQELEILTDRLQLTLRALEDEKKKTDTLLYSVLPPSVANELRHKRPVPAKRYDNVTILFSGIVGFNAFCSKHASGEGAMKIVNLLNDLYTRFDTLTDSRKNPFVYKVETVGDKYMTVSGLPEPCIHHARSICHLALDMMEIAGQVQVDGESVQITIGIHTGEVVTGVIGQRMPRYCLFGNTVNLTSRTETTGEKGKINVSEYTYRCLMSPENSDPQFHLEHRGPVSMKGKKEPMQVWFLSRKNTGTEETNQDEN
The experiment in a line: Action on recombinant guanylate cyclase reporter cell line. The series is classed as cell-based. The following applies: in some cases mean values from individual determinations. In a few lines:
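Rat recombinant guanylate cyclase reporter cell line measures cellular activity. Value reported as MEC (minimal effective concentration), sometimes averaged over individual determinations.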

Series [2] can be described thus: Determination of pharmacokinetic parameters following intravenous and oral administration (rats). The format is in vivo, male Wistar rats. The following applies: intravenous administration in rats. On the procedure:
B-6. Determination of Pharmacokinetic Parameters Following Intravenous and Oral Administration
The pharmacokinetic parameters of the compounds according to the invention are determined in male CD-1 mice, male Wistar rats and female beagles. Intravenous administration in the case of mice and rats is carried out by means of a species-specific plasma/DMSO formulation, and in the case of dogs by means of a water/PEG400/ethanol formulation. In all species, oral administration of the dissolved substance is performed via gavage, based on a water/PEG400/ethanol formulation. The taking of blood from rats is simplified by inserting a silicone catheter into the right Vena jugularis externa prior to substance administration. The operation is carried out at least one day prior to the experiment with […] and administration of an analgesic (atropin/Rimadyl (3/1) 0.1 ml s.c.). The blood is taken (generally more than 10 time points) within a time window including terminal time points of at least 24 to a maximum of 72 hours after substance administration. When the blood is taken, it is passed into heparinised tubes. Then the blood plasma is obtained by centrifugation and is optionally stored at −20° C. until further processing.
An internal standard (which may also be a chemically unrelated substance) is added to the samples of the compounds according to the invention, calibration samples and qualifiers, and there follows protein precipitation by means of excess acetone. Addition of a buffer solution matched to the LC conditions, and subsequent vortexing, is followed by centrifugation at 1000 g. The supernatant is analysed by LC-MS/MS using C18 reversed-phase columns and variable mobile phase mixtures. The substances are quantified via the peak heights or areas from extracted ion chromatograms of specific selected ion monitoring experiments.
The plasma concentration/time plots determined are used to calculate the pharmacokinetic parameters such as AUC, Cmax, t1/2 (terminal half life), F (bioavailability), MRT (mean residence time) and CL (clearance), using a validated pharmacokinetic calculation program.
Since the substance quantification is carried out in plasma, it is necessary to determine the blood/plasma distribution of the substance in order to be able to adjust the pharmacokinetic parameters correspondingly. For this purpose, a defined amount of substance is incubated in heparinized whole blood of the species in question in a rocking roller mixture for 20 min. After centrifugation at 1000 g, the plasma concentration is measured (by means of LC-MS/MS; see above) and determined by calculating the ratio of the Cblood/Cplasma value.

Setting [3] is: male, Wistar, rat, plasma, iv, read-out: MRT.

Like-named read-outs stand apart in the source and are kept apart here.

The half-life is the time needed for the level to fall by half in the phase considered. Low values mean fast loss, high ones slow loss. One may read the MRT as the average time that molecules of a dose stay in the body. As to `Cc1nc2c(OCc3c(F)cccc3F)cc(Cl)cn2c1C(=O)NCC(N)C(C)C` (single isomer, unassigned) [Example 211, ent-N-(2-Amino-3-methylbutyl)-6-chloro-8-[(2,6-difluorobenzyl)oxy]-2-methylimidazo[1,2-a]-pyridine-3-carboxamide], the “MEC (minimal effective concentration)” value in series [1] turned out to be 0.30 µM. Also, in series [2], the AUCnorm amounted to 0.78 kg·h/L and the CLblood came to 17.8 mL/min/kg. In series [2] (male, Wistar, rat, plasma, iv), this molecule had a half-life of 4.8 h. Further, the mean residence time MRT in series [2] (setting [3]) worked out at 6.6 h.

Turning to `Cc1cc(OCc2c(F)cccc2F)c2nc(C)c(C(=O)NCC(N)C(C)C)n2c1` (single isomer, unassigned) [Example 223, ent-N-(2-Amino-3-methylbutyl)-8-[(2,6-difluorobenzyl)oxy]-2,6-dimethylimidazo[1,2-a]pyridine-3-carboxamide], the “MEC (minimal effective concentration)” value in series [1] amounted to 0.30 µM. For the same molecule, in series [2], the AUCnorm was found to be 0.87 kg·h/L and the CLblood worked out at 18.2 mL/min/kg. For the same molecule, in series [2] (male, Wistar, rat, plasma, iv), the half-life is 4.8 h. In series [2] (setting [3]), the mean residence time (MRT) turned out to be 6.1 h.

As for `CCCC(C)(N)CNC(=O)c1c(C)nc2c(OCc3c(F)ccc(F)c3F)cc(C)cn12` (single isomer, unassigned) [Example 295, ent-N-(2-amino-2-methylpentyl)-2,6-dimethyl-8-[(2,3,6-trifluorobenzyl)oxy]imidazo[1,2-a]pyridine-3-carboxamide], the “MEC (minimal effective concentration)” value in series [1] turned out to be 0.10 µM. In addition, in series [2], the AUCnorm was determined as 0.56 kg·h/L and the CLblood came to 20.5 mL/min/kg. In addition, the half-life in series [2] (male, Wistar, rat, plasma, iv) is 6.6 h. In addition, the MRT in series [2] (setting [3]) came out at 8.8 h.

On to `CCCC(C)(N)CNC(=O)c1c(C)nc2c(OCc3c(F)ccc(F)c3F)cc(C)cn12` (single isomer, unassigned) [Example 304, ent-N-(2-amino-2-methylpentyl)-2,6-dimethyl-8-[(2,3,6-trifluorobenzyl)oxy]imidazo[1,2-a]pyridine-3-carboxamide], for which the “MEC (minimal effective concentration)” value in series [1] amounted to 0.10 µM. In series [2], the AUCnorm was determined as 0.34 kg·h/L, the CLblood was found to be 37.8 mL/min/kg, the MRT came to 9.4 h and the t1/2 is listed as 6.2 h.

With `Cc1cc(OCc2c(F)cccc2F)c2nc(C)c(C(=O)NCC(C)(N)CCC(F)(F)F)n2c1` (single isomer, unassigned) [Example 408, ent-N-(2-amino-5,5,5-trifluoro-2-methylpentyl)-8-[(2,6-difluorobenzyl)oxy]-2,6-dimethylimidazo[1,2-a]pyridine-3-carboxamide], the “MEC (minimal effective concentration)” value in series [1] came out at 0.10 µM. In series [2], the AUCnorm amounted to 0.19 kg·h/L and the CLblood was determined as 51.2 mL/min/kg. This molecule had a half-life in series [2] (male, Wistar, rat, plasma, iv) of 3.8 h. In addition, the mean residence time MRT in series [2] (setting [3]) was found to be 4.7 h.

For the molecule `Cc1cc(OCc2c(F)cccc2F)c2nc(C)c(C(=O)NCC(C)(N)CCC(F)(F)F)n2c1` (single isomer, unassigned) [Example 409, ent-N-(2-amino-5,5,5-trifluoro-2-methylpentyl)-8-[(2,6-difluorobenzyl)oxy]-2,6-dimethylimidazo[1,2-a]pyridine-3-carboxamide], the “MEC (minimal effective concentration)” value in series [1] is 0.03 µM. In series [2], this molecule displayed an AUCnorm of 0.28 kg·h/L, a CLblood of 35.8 mL/min/kg, a mean residence time MRT of 7.4 h and a t1/2 of 5.8 h.

With `Cc1cc(OCc2c(F)ccc(F)c2F)c2nc(C)c(C(=O)NCC(C)(N)CCC(F)(F)F)n2c1` (single isomer, unassigned) [Example 410, ent-N-(2-amino-5,5,5-trifluoro-2-methylpentyl)-2,6-dimethyl-8-[(2,3,6-trifluorobenzyl)oxy]imidazo[1,2-a]pyridine-3-carboxamide], in series [1], the “MEC (minimal effective concentration)” value is 0.10 µM. In series [2], this molecule returned an AUCnorm of 0.21 kg·h/L, a CLblood of 46.2 mL/min/kg and an MRT of 5.4 h. Moreover, the half-life in series [2] (male, Wistar, rat, plasma, iv) is 4.3 h.

`Cc1cc(OCc2c(F)ccc(F)c2F)c2nc(C)c(C(=O)NCC(C)(N)CCC(F)(F)F)n2c1` (single isomer, unassigned) [Example 411, ent-N-(2-amino-5,5,5-trifluoro-2-methylpentyl)-2,6-dimethyl-8-[(2,3,6-trifluorobenzyl)oxy]imidazo[1,2-a]pyridine-3-carboxamide]: the “MEC (minimal effective concentration)” value in series [1] is 0.03 µM. In series [2], this molecule registered an AUCnorm of 0.41 kg·h/L, a CLblood of 25.3 mL/min/kg, an MRT of 11.2 h and a t1/2 of 8.2 h.

Turning to `CCC(C)(N)CNC(=O)c1c(C)nc2c(OCc3c(F)ccc(F)c3F)cc(C)cn12` (single isomer, unassigned; enantiomer a) [Example 274, ent-N-(2-Amino-2-methylbutyl)-2,6-dimethyl-8-[(2,3,6-trifluorobenzyl)oxy]imidazo[1,2-a]-pyridine-3-carboxamide (Enantiomer A)], the “MEC (minimal effective concentration)” value in series [1] amounted to 0.10 µM. Besides, in series [2], the AUCnorm amounted to 1.29 kg·h/L and the CLblood was found to be 11.5 mL/min/kg. Also, the half-life in series [2] (male, Wistar, rat, plasma, iv) was 5.8 h. In addition, in series [2] (setting [3]), the mean residence time (MRT) was 8.4 h.

For the molecule `CCC(C)(N)CNC(=O)c1c(C)nc2c(OCc3c(F)cccc3F)cc(OC)cn12` (single isomer, unassigned; enantiomer a) [Example 279, ent-N-(2-amino-2-methylbutyl)-8-[(2,6-difluorobenzyl)oxy]-6-methoxy-2-methylimidazo[1,2-a]pyridine-3-carboxamide (Enantiomer A)], the “MEC (minimal effective concentration)” value in series [1] worked out at 0.3 µM. In series [2], this molecule gave an AUCnorm of 0.42 kg·h/L and a CLblood of 46 mL/min/kg. This molecule gave a half-life in series [2] (male, Wistar, rat, plasma, iv) of 2.3 h. Besides, the MRT in series [2] (setting [3]) is 2.9 h.

`Cc1cc(OCc2c(F)cccc2F)c2nc(C)c(C(=O)NCC(C)(N)CF)n2c1` (single isomer, unassigned; enantiomer a) [Example 283, ent-N-(2-amino-3-fluoro-2-methylpropyl)-8-[(2,6-difluorobenzyl)oxy]-2,6-dimethylimidazo[1,2-a]pyridine-3-carboxamide (Enantiomer A)]: the “MEC (minimal effective concentration)” value in series [1] turned out to be 0.3 µM. In series [2], this molecule showed an AUCnorm of 0.67 kg·h/L and a CLblood of 14.5 mL/min/kg. Besides, the half-life in series [2] (male, Wistar, rat, plasma, iv) is 3.1 h. In addition, the mean residence time (MRT) in series [2] (setting [3]) stood at 3.9 h.
